Reference: patent publication EP0232423A1, “CIRCULATION IMPROVING AGENT” (GRELAN PHARMACEUTICAL CO., LTD., priority 1985, dated 1987)
Structures can show the parent of a compound that is named as a salt.

Columns and labels:
isolated basilar artery [1] = experiment: Relaxation of isolated basilar artery contracted by 50 mM KCl; format: cell-based, Mongrel dogs; settings: Canis lupus familiaris, 50 mM KCl contraction; for inhibition at 1 µM: 10^-6 M; for inhibition at 0.1 µM: 10^-7 M; for inhibition at 0.01 µM: 10^-8 M; for EC50: relaxation of isolated basilar artery, read-out: ED50 (the source's name)
Procedure: (§1) Mongrel dogs of either sex (body weight 10-17 kg) were killed by bleeding under anesthetization with pentobarbital sodium (tradename: Nembutai ® Abbott Co., USA). Thereafter, the basilar and femoral arteries were extracted and attached blood and connective tissues were carefully removed in a dish filled with Krebs bicarbonate solution (composition: NaCl 117.7 mM, KC1 4.7 mM, CaCl2 2.5 mM, MgSo4 1.2 mM, glucose 10 mM, NaHCO3 24.4 mM). Thereafter, ring preparations were made therefrom. This preparation was suspended in a bathing tube of 10 ml filled with Krebs bicarbonate solution aerated with 95 % 02 and 5 % C02.
(§2) Then, samples of basilar and femoral arteries were contracted by application of 50 mM KC1. After confirming that the contraction was sustained, (a) compound (I) (erythro form) lactate, (b) compound (I) (threo form) lactate and (c) ifenprodil; [2-(4-benzyl- piperidino-l-(4-hydroxyphenyl)propane-l-ol] tartrate were, respectively, administered as test compounds and the dose-relaxation response was examined.
(§3) A strain gauge transducer (model SB-lT manufactured by Nihon Koden Co.) was employed for recording of change of tension and isometric contraction was recorded on a recorder (model QPD 53 made by Hitachi Ltd . ) .

isolated femoral artery [2] = experiment: Relaxation of isolated femoral artery contracted by 50 mM KCl; format: cell-based, Mongrel dogs; settings: Canis lupus familiaris, 50 mM KCl contraction; for inhibition at 100 µM: 10^-4 M; for inhibition at 10 µM: 10^-5 M; for inhibition at 1 µM: 10^-6 M; for inhibition at 0.1 µM: 10^-7 M; for EC50: relaxation of isolated femoral artery, read-out: ED50 (the source's name)
Procedure: as §1, §2, §3

ddY male mice [3] = experiment: Prolongation of gasping time in complete cerebral ischemic (decapitated) animals; format: in vivo; settings: for Ratio of time (%): prolongation as compared with the control group; for Duration time of gasping: decapitated after 30 minutes
Procedure: After 30 minutes from administration, the.mice were decapitated and the duration time of gasping was measured. The control group was drug-untreated.

isolated coronary artery = experiment: Relaxation of isolated coronary artery; format: cell-based, Mongrel dogs; settings: Canis lupus familiaris, read-out: ED50 (the source's name)
Procedure: as §1, §2, §3
Experiments were conducted in accordance with the method of Test Example 2 with use of the coronary artery in place of the basilar and femoral arteries. […]

isolated basilar artery [4] = experiment: Ca antagonistic action: Ca-induced contraction in K-depolarized basilar artery; format: cell-based, Mongrel dogs; settings: Canis lupus familiaris, 0.25 h, 50 mM KCl, Ca-free bath, cumulative CaCl2, compound applied 15 minutes before, read-out: pA2 values on Ca-induced contraction in depolarized muscle by K (converted)
Procedure: (§4) The same measurements as in Test Example 2 were carried out using the isolated basilar artery and isolated femoral artery treated in accordance with the method of Test Example 2.
(§5) For examination of the Ca antagonistic action, the depolarization of both isolated arteries was induced with 50 mM KC1 in a bathing solution from which Ca had been removed and then CaCl2 was cumulatively applied thereto. As test compounds, (a) compound (I) (erythro form) lactate and (b) ifenprodil tartrate were applied at 15 minutes before addition of CaCl2.

isolated femoral artery [5] = experiment: Ca antagonistic action: Ca-induced contraction in K-depolarized femoral artery; format: cell-based, Mongrel dogs; settings: Canis lupus familiaris, 0.25 h, 50 mM KCl, Ca-free bath, cumulative CaCl2, compound applied 15 minutes before, read-out: pA2 values on Ca-induced contraction in depolarized muscle by K (converted)
Procedure: as §4, §5

platelets of rabbit = experiment: Fluidity of platelet membrane (fluorescence polarization); format: cell-based; set-up: Fluorescence polarization: unit not given here; settings: for Fluorescence polarization: fluidity increases as value decreases
Text: The activity of compound (I) (lactate) and ifenprodil tartrate against the fluidity of platelet membrane was examined according to a known method (Biochimica et Biophysica Acta, vol. 798, page 210, 1984) using platelets of rabbit and using n-butyl alcohol as a positive control.

α1-adrenoceptor = experiment: Antagonism of phenylephrine (α1-agonist) contraction in saphenous vein; format: cell-based, Mongrel dogs; settings: α1 - agonist: phenylephrine; saphenous vein; 15 minutes treatment
Text: (§6) In this experiment, phenylephrine and clonidine were used as al-agonist and a2-agonist, respectively, and these agonists were cumulatively applied to obtain a dose-response curve.

α2-adrenoceptor = experiment: Antagonism of clonidine (α2-agonist) contraction in saphenous vein; format: cell-based, Mongrel dogs; settings: α2 - agonist: clonidine, non-competitive antagonism, 15 min
Text: as §6

ddY male mice [6] = experiment: Ameliorative activity against damage of cerebral hypoxia (reduced pressure); format: in vivo; settings: for Time required for stoppage of respiration: 30 minutes before, pressure reduced to 160 mmHg
Procedure: Thirty mg/kg each of compound (I) (lactate) and ifenprodil tartrate and 16 mg/kg of phentolamine, which is an a-adrenoceptor blocker, were intraperitoneally administered to ddY male mice, respectively. […] Time from start of reduction of pressure until stop of respiration in the mice was measured. The control group was drug-untreated.

isolated femoral artery [7] = experiment: K-induced 45Ca influx in isolated femoral artery; format: cell-based, Mongrel dogs; settings: 10^-5 M + 50 mM KCl
Text: (§7) Using the isolated basilar artery and femoral artery treated in accordance with Test Example 2, the activity of (a) compound (I) (lactate), (b) ifenprodil tartrate and (c) verapamil hydrochloride against ^45Ca influx and ^45Ca uptake were examined by the conventional method (J. Membran. Biol., vol. 59, page 19, 1981).

isolated femoral artery [8] = experiment: K-induced 45Ca uptake in isolated femoral artery; format: cell-based, Mongrel dogs; settings: 50 mM KCl alone 586.0 ± 17.9
Text: as §7

isolated basilar artery [9] = experiment: PGF2α-induced 45Ca uptake in isolated basilar artery; format: cell-based, Mongrel dogs; settings: 10^-5 M + 10^-5 M PGF2α; PGF2α alone 166.2 ± 6.0
Text: as §7

ddY male mice [10] = experiment: Thromboembolic respiratory depression induced by ADP; format: in vivo; settings: ADP 40 mg/kg i.v.
Procedure: The degree of formation of platelet thrombi in the pulmonary vessels of mice induced by intravenous administration of ADP can be measured based on the decrease in the respiratory rate. The anti-platelet thrombotic action of test drugs can be evaluated by using this decrease in the respiratory rate as a standard. […] Relative respiratory rate (%) was calculated according to the following formula. [formula] (cf. "Thrombosis Research", Vol. 35, Page 311, 1984)

[11] = pre-incubation 15 min, 50 mM KCl alone 94.6 ± 5.2
[12] = pre-incubation 45 min, 50 mM KCl alone 98.4 ± 6.8

Structure (SMILES): C[C@@H]([C@H](O)c1ccc(OCc2ccccc2)cc1)N1CCC(Cc2ccccc2)CC1 (relative stereo) [Compound (I) (erythro form) lactate]
- inhibition at 1 µM (isolated basilar artery [1]; mean, n = 4 - 5): 100%
- inhibition at 0.1 µM (isolated basilar artery [1]; mean, n = 4 - 5): 39.2%
- inhibition at 0.01 µM (isolated basilar artery [1]; mean, n = 4 - 5): 7%
- EC50 (isolated basilar artery [1]): 160 nM
- inhibition at 100 µM (isolated femoral artery [2]; mean, n = 4 - 5): 85.8%
- inhibition at 10 µM (isolated femoral artery [2]; mean, n = 4 - 5): 59.9%
- inhibition at 1 µM (isolated femoral artery [2]; mean, n = 4 - 5): 34.2%
- inhibition at 0.1 µM (isolated femoral artery [2]; mean, n = 4 - 5): 1.2%
- inhibition at 0.01 µM (isolated femoral artery [2]; 10^-8 M, mean, n = 4 - 5): 0.4%
- EC50 (isolated femoral artery [2]): 7200 nM

Structure (SMILES): C[C@@H]([C@@H](O)c1ccc(OCc2ccccc2)cc1)N1CCC(Cc2ccccc2)CC1 (relative stereo) [Compound (I) (threo form) lactate]
- inhibition at 10 µM (isolated basilar artery [1]; 10^-5 M, mean, n = 4 - 5): 100%
- inhibition at 1 µM (isolated basilar artery [1]; mean, n = 4 - 5): 91.7%
- inhibition at 0.1 µM (isolated basilar artery [1]; mean, n = 4 - 5): 72.1%
- inhibition at 0.01 µM (isolated basilar artery [1]; mean, n = 4 - 5): 10.8%
- EC50 (isolated basilar artery [1]): 85 nM
- inhibition at 100 µM (isolated femoral artery [2]; mean, n = 4 - 5): 62.3%
- inhibition at 10 µM (isolated femoral artery [2]; mean, n = 4 - 5): 22.5%
- inhibition at 1 µM (isolated femoral artery [2]; mean, n = 4 - 5): 6.8%
- inhibition at 0.1 µM (isolated femoral artery [2]; mean, n = 4 - 5): 0%
- EC50 (isolated femoral artery [2]): 51000 nM

Structure (SMILES): CC(C)(CO)[C@@H](O)C(=O)NCCCC(=O)O [Calcium hopantenate]
- Ratio of time (%) (ddY male mice [3]; 300 mg/kg i.p.): 10.5%
- Duration time of gasping (ddY male mice [3]; 300 mg/kg intraperitoneally): 23.1 ± 0.6 s

Structure (SMILES): CC(C(O)c1ccc(OCc2ccccc2)cc1)N1CCC(Cc2ccccc2)CC1 (stereo not drawn) [Compound (I) lactate]
- EC50 (isolated coronary artery): 2200 nM
- Kb (isolated basilar artery [4]): 18.6 nM
- Kb (isolated femoral artery [5]): 1550 nM
- effect on fluidity of platelet membrane (platelets of rabbit): an increase in the fluitidy of platelet membrane
- pA2 value (α1-adrenoceptor): pA2 = 7.03 ± 0.04
- pD2' value (α2-adrenoceptor): pD2' = 4.87^Note 4)
- Time required for stoppage of respiration (ddY male mice [6]; 30 mg/kg intraperitoneally): 126.1 ± 12.1 s
- Ratio of time (%) (ddY male mice [3]; 3 mg/kg i.p.): 3.8%
- Duration time of gasping (ddY male mice [3]; 3 mg/kg intraperitoneally): 21.7 ± 0.4 s
- Ratio of time (%) (ddY male mice [3]; 10 mg/kg i.p.): 27.8%
- Duration time of gasping (ddY male mice [3]; 10 mg/kg intraperitoneally): 26.7 ± 1.8 s
- Ratio of time (%) (ddY male mice [3]; 30 mg/kg i.p.): 116.3%
- Duration time of gasping (ddY male mice [3]; 30 mg/kg intraperitoneally): 45.2 ± 3.5 s
- K-induced ^45Ca influx in isolated femoral artery (isolated femoral artery [7]; [11]): 106.2 ± 4.1 n mol/g wt. tissue
- K-induced ^45Ca influx in isolated femoral artery (isolated femoral artery [7]; [12]): 38.2 ± 2.6 n mol/g wt. tissue
- K-induced ^45Ca influx in isolated femoral artery (isolated femoral artery [7]; pre-incubation 135 min): 28.3 ± 1.1 n mol/g wt. tissue
- K-induced ^45Ca uptake in isolated femoral artery (isolated femoral artery [8]; 10^-4 M + 50 mM KCl): 378.8 ± 27.9 n mol/g wt. tissue
- K-induced ^45Ca uptake in isolated femoral artery (isolated femoral artery [8]; 10^-5 M + 50 mM KCl): 461.4 ± 26.7 n mol/g wt. tissue
- K-induced ^45Ca uptake in isolated femoral artery (isolated femoral artery [8]; 10^-6 M + 50 mM KCl): 724.4 ± 32.4 n mol/g wt. tissue
- PGF2α-induced ^45Ca uptake in isolated basilar artery (isolated basilar artery [9]): 135.2 ± 12.7 (*) n mol/g wt. tissue

Structure (SMILES): COc1ccc([C@@H]2Sc3ccccc3N(CCN(C)C)C(=O)[C@@H]2OC(C)=O)cc1 [Diltiazem-HCl]
- Relative respiratory rate (%) (ddY male mice [10]; 10 mg/kg oral, 1 hr after administration): 56.3 ±8.5 (n=6) %
- Relative respiratory rate (%) (ddY male mice [10]; 10 mg/kg oral, 2 hr after administration): 38.3 ±7.3 (n=7) %

Structure (SMILES): OC[C@H]1OC(O)[C@H](O)[C@@H](O)[C@@H]1O (stereo partly drawn) [Glucose]
- Ratio of time (%) (ddY male mice [3]; 5.4 g/kg i.p.): 10.5%
- Duration time of gasping (ddY male mice [3]; 5.4 g/kg intraperitoneally): 23.1 ± 0.6 s

Structure (SMILES): Cc1ccc(N(CC2=NCCN2)c2cccc(O)c2)cc1 [Phentolamine]
- Time required for stoppage of respiration (ddY male mice [6]; 16 mg/kg intraperitoneally): 54.5 ± 2.9 s
- effect on survival time (cerebral hypoxia) (ddY male mice [6]; i.p., 30 mg/kg compound (I) and ifenprodil tartrate, 16 mg/kg phentolamine): shortens it

Structure (SMILES): Clc1ccccc1CN1CCc2sccc2C1 [Ticlopidine-HCl]
- Relative respiratory rate (%) (ddY male mice [10]; 30 mg/kg oral, 1 hr after administration, Compound (I) = erythro form): 49.3 ±4.3 (n=6) %
- Relative respiratory rate (%) (ddY male mice [10]; 30 mg/kg oral, 2 hr after administration, Compound (I) = erythro form): 33.9 ±7.0 (n=7) %
- Relative respiratory rate (%) (ddY male mice [10]; 30 mg/kg oral, 3 hr after administration, Compound (I) = erythro form): 37.2 ±10.5 (n=9) %

Structure (SMILES): COc1ccc(CCN(C)CCCC(C#N)(c2ccc(OC)c(OC)c2)C(C)C)cc1OC (stereo not drawn) [Verapamil hydrochloride]
- K-induced ^45Ca influx in isolated femoral artery (isolated femoral artery [7]; [11]): 76.7 ± 2.0 n mol/g wt. tissue
- K-induced ^45Ca influx in isolated femoral artery (isolated femoral artery [7]; [12]): 29.8 ± 2.8 n mol/g wt. tissue
- K-induced ^45Ca influx in isolated femoral artery (isolated femoral artery [7]; pre-incubation 135 min): 64.1 ± 5.0 n mol/g wt. tissue
- K-induced ^45Ca uptake in isolated femoral artery (isolated femoral artery [8]; 10^-5 M + 50 mM KCl): 344.7 ± 14.4 n mol/g wt. tissue
- PGF2α-induced ^45Ca uptake in isolated basilar artery (isolated basilar artery [9]): 134.0 ± 4.1 n mol/g wt. tissue

Structure (SMILES): CCCCO [n-Butyl alcohol, n-butyl alcohol]
- effect on fluidity of platelet membrane (platelets of rabbit): an increase in the fluitidy of platelet membrane
- Fluorescence polarization (platelets of rabbit; 21 µM): 7±5
- Fluorescence polarization (platelets of rabbit; 42 µM): 6±5
- Fluorescence polarization (platelets of rabbit; 62 µM): -14±2
